Results reported in US20090253209A1, “Method of obtaining BZM purity, quantity of [123I]IBZM labeled ligand and quantity of BZM free ligand” (ATOMIC ENERGY COUNCIL - INSTITUTE OF NUCLEAR ENERGY RESEARCH, priority 2008, published 2009).

Columns and labels:
D2/D3 receptor (D2/D3R) = details: in rats; compared with [^123I] IBZM; cited from earlier work
[1] = solution stability test of BZM solution by HPLC; type: physicochemical; details: BZM dissolved in DMSO, room temperature, three days
From the text: (7) For the solution stability test, a sum of BZM solution is put under a room temperature to be processed with HPLC analysis for three days, as shown in FIG. 12. Consequently, the difference of BZM retention time is 0.64%; the resolution difference is 5.81%; the purity difference is −0.37%; the difference of a linear least square regression slope is −3.18%; and linear correlation coefficients are all greater than 0.9997.

CCN1CCC[C@H]1CNC(=O)c1c(O)cccc1OC [BZM, (S)-(-)-2-hydroxy-6-methoxy-N-[(1-ethyl-2-pyrrolidinyl)methyl]benzamide]
bonding to D2/D3 receptor relative to [^123I] IBZM (D2/D3 receptor (D2/D3R)): far small bonding to D2/D3 receptor (D2/D3R) than [^123I] IBZM | solution stability (in words) [1]: good stability | purity difference (solution stability) ([1]; HPLC analysis): −0.37%
